This note sets out measurements from ChEMBL document CHEMBL1138857, “Quinol-4-ones as steroid A-ring mimetics in nonsteroidal dissociated glucocorticoid agonists” (J Med Chem, 2006).

Experiment [1] addresses T1, Progesterone receptor (Homo sapiens, UniProt P06401).
T1 sequence (P06401 whole entry): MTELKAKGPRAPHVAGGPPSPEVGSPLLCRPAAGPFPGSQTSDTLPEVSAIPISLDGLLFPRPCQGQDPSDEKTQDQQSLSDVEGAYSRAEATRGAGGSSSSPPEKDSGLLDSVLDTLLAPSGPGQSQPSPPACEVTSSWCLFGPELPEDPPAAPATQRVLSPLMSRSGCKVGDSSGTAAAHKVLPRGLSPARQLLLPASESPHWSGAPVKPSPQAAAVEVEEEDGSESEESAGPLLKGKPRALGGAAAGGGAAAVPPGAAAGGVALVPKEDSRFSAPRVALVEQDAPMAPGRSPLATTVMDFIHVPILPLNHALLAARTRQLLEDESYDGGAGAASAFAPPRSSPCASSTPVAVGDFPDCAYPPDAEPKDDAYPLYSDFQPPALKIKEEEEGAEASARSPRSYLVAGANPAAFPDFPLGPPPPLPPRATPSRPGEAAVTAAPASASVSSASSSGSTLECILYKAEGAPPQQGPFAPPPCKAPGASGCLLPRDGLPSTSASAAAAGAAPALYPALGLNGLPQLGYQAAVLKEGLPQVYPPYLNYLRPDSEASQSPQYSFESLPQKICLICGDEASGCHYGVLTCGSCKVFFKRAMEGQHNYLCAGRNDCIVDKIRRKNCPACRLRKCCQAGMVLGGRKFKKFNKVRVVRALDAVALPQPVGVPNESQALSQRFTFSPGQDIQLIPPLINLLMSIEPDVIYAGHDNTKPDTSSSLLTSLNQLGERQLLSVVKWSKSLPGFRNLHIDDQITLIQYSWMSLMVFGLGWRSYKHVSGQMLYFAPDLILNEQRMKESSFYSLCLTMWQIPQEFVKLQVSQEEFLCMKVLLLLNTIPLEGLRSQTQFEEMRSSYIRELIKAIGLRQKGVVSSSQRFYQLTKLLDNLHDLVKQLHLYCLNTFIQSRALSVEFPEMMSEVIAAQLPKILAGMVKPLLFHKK
Briefly: Inhibition of tetramethylrhodamine labeled RU486 binding to PR by FP assay.

The target of experiment [2] is T2, Mineralocorticoid receptor (Homo sapiens, UniProt P08235).
T2 sequence (P08235 whole entry): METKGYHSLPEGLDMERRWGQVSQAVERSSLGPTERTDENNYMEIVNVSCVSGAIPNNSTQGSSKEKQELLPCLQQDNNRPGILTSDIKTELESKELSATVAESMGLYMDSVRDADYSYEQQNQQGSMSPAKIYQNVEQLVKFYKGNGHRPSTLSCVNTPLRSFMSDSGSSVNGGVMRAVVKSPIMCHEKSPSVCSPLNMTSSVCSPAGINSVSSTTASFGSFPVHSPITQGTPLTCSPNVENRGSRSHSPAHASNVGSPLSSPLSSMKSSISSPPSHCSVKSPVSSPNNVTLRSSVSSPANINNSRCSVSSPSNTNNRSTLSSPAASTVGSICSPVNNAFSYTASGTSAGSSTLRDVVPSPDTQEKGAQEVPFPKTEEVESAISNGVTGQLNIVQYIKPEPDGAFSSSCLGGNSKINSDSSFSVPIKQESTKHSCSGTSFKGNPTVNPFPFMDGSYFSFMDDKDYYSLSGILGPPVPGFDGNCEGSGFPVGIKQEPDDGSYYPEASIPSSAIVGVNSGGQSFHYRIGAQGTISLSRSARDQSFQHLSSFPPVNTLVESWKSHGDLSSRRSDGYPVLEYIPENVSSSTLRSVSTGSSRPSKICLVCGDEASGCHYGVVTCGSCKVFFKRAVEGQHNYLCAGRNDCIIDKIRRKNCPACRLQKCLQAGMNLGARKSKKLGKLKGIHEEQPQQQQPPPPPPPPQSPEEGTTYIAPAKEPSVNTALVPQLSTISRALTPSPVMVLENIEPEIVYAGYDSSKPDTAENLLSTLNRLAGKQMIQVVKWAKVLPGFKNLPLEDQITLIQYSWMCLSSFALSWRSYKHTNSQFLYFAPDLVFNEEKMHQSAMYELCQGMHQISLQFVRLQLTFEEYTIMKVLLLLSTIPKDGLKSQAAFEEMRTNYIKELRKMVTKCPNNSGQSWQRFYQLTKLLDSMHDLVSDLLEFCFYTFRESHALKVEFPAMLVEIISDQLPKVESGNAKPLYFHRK
As to the kind of experiment: Inhibition of tetramethylrhodamine labeled dexamethasone binding to MR by FP assay.

In experiment [3] the test system is HFF. Briefly: Inhibition of IL1-stimulated IL6 production in HFF cells. It counts as functional, cell-based. The settings on record: Homo sapiens.
Experiment [4] relates to HFF. As to the kind of experiment: Inhibition of IL1-stimulated IL6 production in HFF cells relative to Dexamethasone. It counts as functional, Homo sapiens.
Experiment [5] concerns HFF. As to the kind of experiment: Induction of aromatase activity in HFF cells assessed as production of beta estradiol by aromatase assay relative to Dexamethasone. It counts as functional, Homo sapiens.
Experiment [6] deals with Mus musculus. Briefly: Inhibition of LPS-stimulated TNFalpha production in BALB/c mouse at 10 mg/kg, po. It counts as functional.
In experiment [7] the target is T3, Glucocorticoid receptor (Homo sapiens, UniProt P04150).
T3 sequence (P04150 whole entry): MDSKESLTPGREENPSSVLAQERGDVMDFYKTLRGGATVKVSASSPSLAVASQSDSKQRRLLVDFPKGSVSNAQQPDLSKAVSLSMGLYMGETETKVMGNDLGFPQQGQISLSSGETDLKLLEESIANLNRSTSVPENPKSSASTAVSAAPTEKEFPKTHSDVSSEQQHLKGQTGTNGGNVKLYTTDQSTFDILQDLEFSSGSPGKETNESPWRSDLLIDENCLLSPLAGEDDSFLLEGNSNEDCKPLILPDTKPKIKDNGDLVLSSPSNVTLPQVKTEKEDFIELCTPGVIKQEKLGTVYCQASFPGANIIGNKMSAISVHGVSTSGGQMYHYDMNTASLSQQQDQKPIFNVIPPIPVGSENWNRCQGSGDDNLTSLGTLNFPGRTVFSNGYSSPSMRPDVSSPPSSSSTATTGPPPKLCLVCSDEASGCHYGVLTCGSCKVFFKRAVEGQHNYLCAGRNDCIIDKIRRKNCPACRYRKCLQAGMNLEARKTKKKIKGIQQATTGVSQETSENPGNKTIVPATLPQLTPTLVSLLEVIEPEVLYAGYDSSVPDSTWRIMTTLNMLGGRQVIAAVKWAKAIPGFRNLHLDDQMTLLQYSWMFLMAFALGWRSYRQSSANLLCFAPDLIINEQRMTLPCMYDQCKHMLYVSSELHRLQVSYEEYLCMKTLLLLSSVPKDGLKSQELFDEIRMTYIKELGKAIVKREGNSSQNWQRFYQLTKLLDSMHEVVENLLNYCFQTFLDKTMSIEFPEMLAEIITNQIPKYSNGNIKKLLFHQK

For experiment [8], the species on record is Homo sapiens. As to the kind of experiment: Ratio of IC50 for GR to PR.
The subject of experiment [9] is HFF. As to the kind of experiment: Induction of aromatase activity in HFF cells assessed as production of beta estradiol by aromatase assay. Particulars: Homo sapiens. It counts as functional, cell-based.
In experiment [10] the test system is HeLa. As to the kind of experiment: Activation of MMTV in HeLa cells measured by luciferase activity. It counts as functional, cell-based. Particulars: Homo sapiens.
Experiment [11] has as its system HeLa. Briefly: Activation of MMTV in HeLa cells measured by luciferase activity relative to Dexamethasone. It counts as functional, Homo sapiens.
Experiment [12] relates to Mus musculus. Briefly: Inhibition of LPS-stimulated TNFalpha production in BALB/c mouse at 3 mg/kg, po. The settings on record: read-out: Inhibition.

Structures are written as SMILES. pEC50, pIC50: −log10 of the molar value. A value given as a limit tells only on which side of the number the result lay.

Consider `CC(C)(CC(O)(Cn1ccc(=O)c2ccccc21)C(F)(F)F)c1cccc2c1OCC2` (stereo not given), for which the pIC50 is 7.32 in [1], 7.01 in [2], 7.96 in experiment [3] and 8.40 in experiment [7]. In addition, the results for the Efficacy in experiment [4] and in [5] were 86% and 60%, respectively. In experiment [6], this compound displayed an inhibition in vivo at 10 mg/kg of 49%.

In the case of `COc1ccc(F)cc1C(C)(C)CC(O)(CN1CCOc2ccccc21)C(F)(F)F` (stereo not given), the pIC50 in experiment [1] was 6.19; in experiment [2], 6.51; in [3], 6.22; in experiment [7], 7.82. In addition, the Efficacy in experiment [4] came to 25%. Further, the Ratio IC50 in experiment [8] is less than 50.

`COc1ccc(F)cc1C(C)(C)CC(O)(CN1C[C@@H](C)C(=O)[C@@H](C)C1)C(F)(F)F` (stereo not given in full): the pIC50 in experiment [1] was less than 5.70; in experiment [2], 6.37; in experiment [3] it was 7.12; in experiment [7] it was 8.00. The Efficacy in [4] is given as 89%; in experiment [5], 93%. The pEC50 in [9] was 6.62. In addition, the Ratio IC50 in experiment [8] is greater than 75.

`C[C@]12C=CC(=O)C=C1CC[C@@H]1[C@@H]2[C@@H](O)C[C@@]2(C)[C@H]1CC[C@]2(O)C(=O)CO` [PREDNISOLONE] gave a pIC50 in [3] of 8.18. In addition, the results for the Efficacy in experiment [4], in experiment [5] and in experiment [11] were 96%, 92% and 91%, respectively. Moreover, the pEC50 was 7.72 in experiment [9] and 7.80 in experiment [10]. Besides, the inhibition in vivo at 3 mg/kg in experiment [12] turned out to be 84%.

On to `Cc1ccc(F)cc1C(C)(C)CC(O)(Cn1cc(C)c(=O)c(C)c1)C(F)(F)F` (stereo not given), for which the pIC50 in experiment [3] was 7.15; in [7] it was 6.90. The Efficacy is reported as 71% in experiment [4] and 20% in experiment [5]. In experiment [9], the pEC50 was less than 5.70. In experiment [6], this compound registered an inhibition in vivo at 10 mg/kg of 48%.

For `Cc1ccccc1C(C)(C)CC(O)(Cn1ccc(=O)c2ccccc21)C(F)(F)F` (stereo not given), the pIC50 in experiment [1] is 6.62; in experiment [2] it was 6.82; in experiment [3], 7.21; in experiment [7], 7.66. Moreover, the results for the Efficacy in [4], in [5] and in experiment [11] were 63%, 29% and 1%, respectively. Besides, the negative-log EC50 (pEC50) in experiment [9] and in experiment [10] was less than 5.70 throughout. Also, the inhibition in vivo at 10 mg/kg in experiment [6] amounted to 36%.

Consider `COc1ccc(F)cc1C(C)(C)CC(O)(CN1C[C@@H](C)O[C@@H](C)C1)C(F)(F)F` (stereo not given in full), for which the pIC50 in [1] was less than 5.70; in experiment [2] it was 6.35; in experiment [3], 6.57; in experiment [7], 7.42. Also, the Efficacy in experiment [4] is listed as 72%. The Ratio IC50 in experiment [8] is greater than 75.

Consider `COc1ccc(C)c(C(C)(C)CC(O)(Cn2ccc(=O)c3ccccc32)C(F)(F)F)c1` (stereo not given), for which the pIC50 in experiment [1] was 6.28; in experiment [2], 7.04; in experiment [3], 7.77; in experiment [7] it was 7.96. For the same compound, the Efficacy turned out to be 86% in [4], 65% in [5] and 6% in experiment [11]. Besides, the pEC50 was 7.02 in experiment [9] and less than 5.70 in experiment [10].

Consider `Cc1ccc(F)cc1C(C)(C)CC(O)(Cn1ccc(=O)c2cnccc21)C(F)(F)F` (stereo not given), for which the pIC50 in [3] was 7.33; in [7] it was 7.32. The Efficacy in [4] is listed as 59%; in experiment [5], 14%. Moreover, the pEC50 in [9] is less than 5.70. The same compound yielded an inhibition in vivo at 10 mg/kg in experiment [6] of 58%.

Consider `Cc1cn(CC(O)(CC(C)(C)c2cccc3c2OCC3)C(F)(F)F)cc(C)c1=O` (stereo not given), for which the pIC50 in experiment [3] is 7.41; in [7], 7.47. Further, the Efficacy in [4] is 77%; in experiment [5], 26%. The compound also yielded an inhibition in vivo at 10 mg/kg in experiment [6] of 49%.

With `CC(C)(CC(O)(Cn1ccc(=O)c2ccccc21)C(F)(F)F)c1cc(F)ccc1O` (stereo not given), the pIC50 in experiment [1] was 6.02; in experiment [2], 6.24; in [3] it was 8.22; in [7] it was 8.30. The Efficacy in experiment [4] is 92%; in experiment [5], 74%; in experiment [11], 20%. Further, the results for the negative-log EC50 (pEC50) in [9] and in [10] were 7.85 and 7.43, respectively. In experiment [6], this compound yielded an inhibition in vivo at 10 mg/kg of 55%.

Turning to `Cc1ccc(F)cc1C(C)(C)CC(O)(Cn1ccc(=O)c2ccccc21)C(F)(F)F` (stereo not given), the pIC50 is 6.62 in [1], 6.92 in [2], 7.47 in [3] and 8.00 in [7]. The Efficacy in [4] came out at 66%; in experiment [5], 22%; in experiment [11] it was 2%. Moreover, the pEC50 in [10] is less than 5.70. This compound had an inhibition in vivo at 10 mg/kg in [6] of 50%.

With `COc1ccc(F)cc1C(C)(C)CC(O)(Cn1ccc(=O)c2ccccc21)C(F)(F)F` (stereo not given), the pIC50 in experiment [1] is 6.32; in experiment [2], 6.92; in experiment [3], 7.57; in [7], 8.00. Moreover, the Efficacy in experiment [4] was found to be 82%; in experiment [5], 67%; in [11], 10%. The pEC50 in experiment [9] is 6.66; in experiment [10] it was less than 5.70. Moreover, the Ratio IC50 in experiment [8] is less than 50.

In the case of `COc1ccc(F)cc1C(C)(C)CC(O)(CN1CCC(=O)c2ccccc21)C(F)(F)F` (stereo not given), the pIC50 in experiment [1] is 7.05; in [2], 6.89; in experiment [3], 6.96; in [7], 8.40. In experiment [4], this compound returned an Efficacy of 72%. The Ratio IC50 in experiment [8] is less than 50.
